Measured values as given in patent publication US20250122219A1 (priority 2023, published 2025).
Like-named read-outs stand apart in the source and are kept apart here.

Columns and labels:
[1] = Cytotoxicity assay in MT-4 cells; type: cell-based; conditions: human; uninfected MT-4 cells, 5 days incubation, Cell Titer Glo; read-out: MT4 CC50
Method in brief: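 Viability read by Cell Titer Glo luminescence after 5 days at 37 °C. MT-4 cells, not infected, in complete RPMI (10% FBS), received compound dilution series. Base cytotoxicity set with […] puromycin.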

[2] = tested on: HIV-1 (IIIB); test: Antiviral assay in MT-4 cells; type: cell-based
Method in brief: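 Read-out: CellTiter-Glo luminescence after 5 days at 37 °C, reflecting survival of MT-4 cells infected with HIV-1 IIIB (1:250 fresh stock dilution) versus mock-infected. Compounds serially diluted into RPMI with 10% FBS; AZT at 5 μM served as positive control.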

[3] = Human immunodeficiency virus 1, MT4, 120 h, HIV-1 IIIB in MT-4 cells, 5 days incubation, Cell Titer Glo, read-out: MT4 EC50
[4] = Human immunodeficiency virus 1, IIIB, MT4, 120 h, read-out: MT4 EC50 (nM)

Compound	CC50 at 5 days [1]	EC50 [2, 3]	EC50 [2, 4]
COC1=NO[C@@]2(CC[C@H](C)N3C[C@H]2n2cc(C(=O)NCc4ccc(F)cc4F)c(=O)c(OC(=O)CCCC(C)C)c2C3=O)C1 [Example 60, (3′S,5S,7′R)-10′-((2,4-difluorobenzyl)carbamoyl)-3-methoxy-3′-methyl-1′,11′-dioxo-1′,4′,5′,11′-tetrahydro-3′H,4H,7′H-spiro[isoxazole-5,6′-[2,7]methanopyrido[1,2-a][1,4]diazonin]-12′-yl 5-methylhexanoate]	21000 nM	0.539 nM	–
CC1=NO[C@@]2(CC[C@H](C)N3C[C@H]2n2cc(C(=O)NCc4ccc(F)cc4F)c(=O)c(OC(=O)CCCC(C)C)c2C3=O)C1 [Example 61, (3′S,5S,7′R)-10′-((2,4-difluorobenzyl)carbamoyl)-3,3′-dimethyl-1′,11′-dioxo-1′,4′,5′,11′-tetrahydro-3′H,4H,7′H-spiro[isoxazole-5,6′-[2,7]methanopyrido[1,2-a][1,4]diazonin]-12′-yl 5-methylhexanoate]	20600 nM	0.733 nM	–
COC1=NO[C@@]2(CC[C@H](C)N3C[C@H]2n2cc(C(=O)NCc4ccc(F)cc4F)c(=O)c(OC(=O)CCCCCC(C)C)c2C3=O)C1 [Example 64, (3′S,5S,7′R)-10′-((2,4-difluorobenzyl)carbamoyl)-3-methoxy-3′-methyl-1′,11′-dioxo-1′,4′,5′,11′-tetrahydro-3′H,4H,7′H-spiro[isoxazole-5,6′-[2,7]methanopyrido[1,2-a][1,4]diazonin]-12′-yl 7-methyloctanoate]	38100 nM	2.48 nM	–
CC1=NO[C@@]2(CC[C@H](C)N3C[C@H]2n2cc(C(=O)NCc4ccc(F)cc4F)c(=O)c(OC(=O)CCCCCC(C)C)c2C3=O)C1 [Example 65, (3′S,5S,7′R)-10′-((2,4-difluorobenzyl)carbamoyl)-3,3′-dimethyl-1′,11′-dioxo-1′,4′,5′,11′-tetrahydro-3′H,4H,7′H-spiro[isoxazole-5,6′-[2,7]methanopyrido[1,2-a][1,4]diazonin]-12′-yl 7-methyloctanoate]	21800 nM	3.01 nM	–
COC1=NO[C@@]2(CC[C@H](C)N3C[C@H]2n2cc(C(=O)NCc4ccc(F)cc4F)c(=O)c(OC(=O)CCCCCCC(C)C)c2C3=O)C1 [Example 66, (3′S,5S,7′R)-10′-((2,4-difluorobenzyl)carbamoyl)-3-methoxy-3′-methyl-1′,11′-dioxo-1′,4′,5′,11′-tetrahydro-3′H,4H,7′H-spiro[isoxazole-5,6′-[2,7]methanopyrido[1,2-a][1,4]diazonin]-12′-yl 8-methylnonanoate]	22300 nM	0.316 nM	–
CC1=NO[C@@]2(CC[C@H](C)N3C[C@H]2n2cc(C(=O)NCc4ccc(F)cc4F)c(=O)c(OC(=O)CCCCCCC(C)C)c2C3=O)C1 [Example 67, (3′S,5S,7′R)-10′-((2,4-difluorobenzyl)carbamoyl)-3,3′-dimethyl-1′,11′-dioxo-1′,4′,5′,11′-tetrahydro-3′H,4H,7′H-spiro[isoxazole-5,6′-[2,7]methanopyrido[1,2-a][1,4]diazonin]-12′-yl 8-methylnonanoate]	18900 nM	0.196 nM	–
CC/C=C\C/C=C\C/C=C\C/C=C\C/C=C\CCCC(=O)Oc1c2n(cc(C(=O)NCc3ccc(F)cc3F)c1=O)[C@@H]1CN(C2=O)[C@@H](C)CC[C@]12CC(C)=NO2 [Example 68, (3′S,5S,7′R)-10′-((2,4-difluorobenzyl)carbamoyl)-3,3′-dimethyl-1′,11′-dioxo-1′,4′,5′,11′-tetrahydro-3′H,4H,7′H-spiro[isoxazole-5,6′-[2,7]methanopyrido[1,2-a][1,4]diazonin]-12′-yl (5Z,8Z,11Z,14Z,17Z)-icosa-5,8,11,14,17-pentaenoate]	16500 nM	1.09 nM	–
CC/C=C\C/C=C\C/C=C\C/C=C\C/C=C\CCCC(=O)Oc1c2n(cc(C(=O)NCc3ccc(F)cc3F)c1=O)[C@@H]1CN(C2=O)[C@@H](C)CC[C@]12CC(OC)=NO2 [Example 69, (3′S,5S,7′R)-10′-((2,4-difluorobenzyl)carbamoyl)-3-methoxy-3′-methyl-1′,11′-dioxo-1′,4′,5′,11′-tetrahydro-3′H,4H,7′H-spiro[isoxazole-5,6′-[2,7]methanopyrido[1,2-a][1,4]diazonin]-12′-yl (5Z,8Z,11Z,14Z,17Z)-icosa-5,8,11,14,17-pentaenoate]	42200 nM	0.54 nM	–
COCCCCCC(=O)Oc1c2n(cc(C(=O)NCc3ccc(F)cc3F)c1=O)[C@@H]1CN(C2=O)[C@@H](C)CC[C@]12CC(OC)=NO2 [Example 70, (3′S,5S,7′R)-10′-((2,4-difluorobenzyl)carbamoyl)-3-methoxy-3′-methyl-1′,11′-dioxo-1′,4′,5′,11′-tetrahydro-3′H,4H,7′H-spiro[isoxazole-5,6′-[2,7]methanopyrido[1,2-a][1,4]diazonin]-12′-yl 6-methoxyhexanoate]	17600 nM	1.02 nM	–
COCCCCCC(=O)Oc1c2n(cc(C(=O)NCc3ccc(F)cc3F)c1=O)[C@@H]1CN(C2=O)[C@@H](C)CC[C@]12CC(C)=NO2 [Example 71, (3′S,5S,7′R)-10′-((2,4-difluorobenzyl)carbamoyl)-3,3′-dimethyl-1′,11′-dioxo-1′,4′,5′,11′-tetrahydro-3′H,4H,7′H-spiro[isoxazole-5,6′-[2,7]methanopyrido[1,2-a][1,4]diazonin]-12′-yl 6-methoxyhexanoate]	19500 nM	1.79 nM	–
COC1=NO[C@@]2(CC[C@H](C)N3C[C@H]2n2cc(C(=O)NCc4ccc(F)cc4F)c(=O)c(OC(=O)CCCC(=O)O)c2C3=O)C1 [Example 73, 5-(((3′S,5S,7′R)-10′-((2,4-difluorobenzyl)carbamoyl)-3-methoxy-3′-methyl-1′,11′-dioxo-1′,4′,5′,11′-tetrahydro-3′H,4H,7′H-spiro[isoxazole-5,6′-[2,7]methanopyrido[1,2-a][1,4]diazonin]-12′-yl)oxy)-5-oxopentanoic acid]	20200 nM	0.797 nM	–
CC1=NO[C@@]2(CC[C@H](C)N3C[C@H]2n2cc(C(=O)NCc4ccc(F)cc4F)c(=O)c(OC(=O)/C=C/C(=O)O)c2C3=O)C1 [Example 75, (E)-4-(((3′S,5S,7′R)-10′-((2,4-difluorobenzyl)carbamoyl)-3,3′-dimethyl-1′,11′-dioxo-1′,4′,5′,11′-tetrahydro-3′H,4H,7′H-spiro[isoxazole-5,6′-[2,7]methanopyrido[1,2-a][1,4]diazonin]-12′-yl)oxy)-4-oxobut-2-enoic acid]	16100 nM	–	1.6 nM
CC1=NO[C@@]2(CC[C@H](C)N3C[C@H]2n2cc(C(=O)NCc4ccc(F)cc4F)c(=O)c(OC(=O)CCCCCCCCCCCCCCCCC(=O)O)c2C3=O)C1 [Example 76, 18-(((3′S,5S,7′R)-10′-((2,4-difluorobenzyl)carbamoyl)-3,3′-dimethyl-1′,11′-dioxo-1′,4′,5′,11′-tetrahydro-3′H,4H,7′H-spiro[isoxazole-5,6′-[2,7]methanopyrido[1,2-a][1,4]diazonin]-12′-yl)oxy)-18-oxooctadecanoic acid]	46000 nM	0.518 nM	–
COC1=NO[C@@]2(CC[C@H](C)N3C[C@H]2n2cc(C(=O)NCc4ccc(F)cc4F)c(=O)c(OC(=O)CCCCCCCCCCCCCCCCC(=O)O)c2C3=O)C1 [Example 77, 18-(((3′S,5S,7′R)-10′-((2,4-difluorobenzyl)carbamoyl)-3-methoxy-3′-methyl-1′,11′-dioxo-1′,4′,5′,11′-tetrahydro-3′H,4H,7′H-spiro[isoxazole-5,6′-[2,7]methanopyrido[1,2-a][1,4]diazonin]-12′-yl)oxy)-18-oxooctadecanoic acid]	≥ 50000 nM	0.658 nM	–
COC(=O)N[C@H](C(=O)Oc1c2n(cc(C(=O)NCc3ccc(F)cc3F)c1=O)[C@@H]1CN(C2=O)[C@@H](C)CC[C@]12CC(OC)=NO2)C(C)C [Example 80]	19800 nM	1.3 nM	–
COC(=O)N[C@H](C(=O)Oc1c2n(cc(C(=O)NCc3ccc(F)cc3F)c1=O)[C@@H]1CN(C2=O)[C@@H](C)CC[C@]12CC(C)=NO2)C(C)C [Example 81]	18100 nM	1.44 nM	–
COC1=NO[C@@]2(CC[C@H](C)N3C[C@H]2n2cc(C(=O)NCc4ccc(F)cc4F)c(=O)c(OCOC(=O)CCC(C)C)c2C3=O)C1 [Example 82, (((3′S,5S,7′R)-10′-((2,4-difluorobenzyl)carbamoyl)-3-methoxy-3′-methyl-1′,11′-dioxo-1′,4′,5′,11′-tetrahydro-3′H,4H,7′H-spiro[isoxazole-5,6′-[2,7]methanopyrido[1,2-a][1,4]diazonin]-12′-yl)oxy)methyl 4-methylpentanoate]	17300 nM	–	2.52 nM
COC1=NO[C@@]2(CC[C@H](C)N3C[C@H]2n2cc(C(=O)NCc4ccc(F)cc4F)c(=O)c(OCOC(C)=O)c2C3=O)C1 [Example 83, (((3′S,5S,7′R)-10′-((2,4-difluorobenzyl)carbamoyl)-3-methoxy-3′-methyl-1′,11′-dioxo-1′,4′,5′,11′-tetrahydro-3′H,4H,7′H-spiro[isoxazole-5,6′-[2,7]methanopyrido[1,2-a][1,4]diazonin]-12′-yl)oxy)methyl acetate]	16000 nM	2.69 nM	–
CC(=O)OCOc1c2n(cc(C(=O)NCc3ccc(F)cc3F)c1=O)[C@@H]1CN(C2=O)[C@@H](C)CC[C@]12CC(C)=NO2 [Example 84, (((3′S,5S,7′R)-10′-((2,4-difluorobenzyl)carbamoyl)-3,3′-dimethyl-1′,11′-dioxo-1′,4′,5′,11′-tetrahydro-3′H,4H,7′H-spiro[isoxazole-5,6′-[2,7]methanopyrido[1,2-a][1,4]diazonin]-12′-yl)oxy)methyl acetate]	19900 nM	3.29 nM	–
